Where only a bound is given, the exact number is not on record here.

Data set [1] is described as follows: Degradation studies of isolated enamine N-oxides in solvent at 60° C. The class given is physicochemical. The conditions noted are these: 6 hours, NMR. On the procedure: Degradation studies were performed using isolated enamine N-oxides (5:5′, 15:1). An LC-MS vial was charged with a 0.1 M solution of enamine N-oxides (23.9 mg, 100 μmol) in the reaction solvent of interest and heated to 60° C. for 6 hours. After heating, the reaction mixture was concentrated under reduced pressure and dissolved in CDCl3. The amounts of enamine N-oxides (5 and 5′) and p-fluorophenol (4) were determined by ^1H and ^19F-NMR integrations using benzotrifluoride as an internal standard. Regioisomer ratios in different solvents were determined by ^1H-NMR integrations of vicinal versus geminal olefinic protons.

Data set [2] can be described thus: Nucleophilic trapping experiment with benzyl mercaptan. The format is physicochemical. The conditions noted are these: benzyl mercaptan (10 equiv), room temperature. On the procedure:
A round-bottom flask was charged with (E)-N,N-diethyl-4-phenyl-3-(p-tolyloxy)but-1-en-1-amine oxide (S6, 26.0 mg, 79.8 μmol, 1 equiv) and dissolved with chloroform-d (773 μL) at room temperature. Benzylmercaptan (93.7 μL, 798 μmol, 10.0 equiv) was then added via syringe. After 5 minutes, analysis by TLC indicated no reduction by benzylmercaptan. Solid bis(pinacolato)diboron (20.3 mg, 79.8 μmol, 1.00 equiv) was then added in one portion at room temperature. After 15 minutes, the reaction was directly loaded onto a silica gel column. The reaction mixture was purified by flash column chromatography (eluent: 100% chloroform) to provide aldehyde S7 (20.2 mg, 94%) as an off-white solid. ^1H NMR (500 MHz, CDCl3, 25° C.): δ 9.51 (dd, J=2.5, 1.4 Hz, 1H), 7.33-7.18 (m, 8H), 7.14-7.08 (m, 2H), 3.68 (q, J=13.4, 10.4 Hz, 2H), 3.20 (tdd, J=8.1, 6.5, 5.6 Hz, 1H), 2.97 (dd, J=13.7, 6.4 Hz, 1H), 2.78 (dd, J=13.8, 8.2 Hz, 1H), 2.60-2.40 (m, 2H). ^13C NMR (126 MHz, CDCl3, 25° C.): δ 200.7, 138.6, 138.1, 129.6, 129.2, 128.8, 128.7, 127.4, 127.0, 47.8, 42.3, 40.5, 36.1. FTIR (thin film) cm^−1: 3026 (w), 2922 (w), 1722 (s), 1494 (m), 1453 (m), 700 (s). HRMS (ESI) (m/z): calc'd for C17H19OS [M+H]^+: 271.1151, found: 271.1149. TLC (100% chloroform), Rf: 0.45 (UV, KMnO4).

Data set [3] can be described thus: Thermal decomposition of enamine N-oxide (Cope elimination). The class given is physicochemical. The conditions noted are these: 60° C. in CDCl3 for 1 h. The protocol: A 1-dram vial was charged with enamine N-oxide S1 (90.0 mg, 179 μmol, 1 equiv) and dissolved in chloroform-d (1.79 mL). The reaction vial was flushed with nitrogen, sealed with a cap and Parafilm, and heated to 60° C. After 1 hour, the oil bath was removed and the reaction was cooled to room temperature. The reaction mixture was purified by flash column chromatography on silica gel (eluent: 5% CMA in chloroform). Fractions containing the desired compound were combined and the solvent was removed under reduced pressure at 0° C. with a rotary evaporator to provide the product S2 (14.9 mg, 34%) as an off-white solid. ^1H NMR (500 MHz, CDCl3, 25° C.): δ 7.94 (d, J=8.3, 1H), 7.86 (d, J=7.3, 1H), 7.79 (d, J=7.9, 1H), 7.55-7.35 (m, 4H), 7.31 (d, J=9.6, 1H), 6.16 (dd, J=36.1, 9.7, 1H), 4.08 (d, J=14.0, 2H), 3.65 (s, 3H). ^13C NMR (126 MHz, CDCl3, 25° C.): δ 165.7 (d, J=277.1), 134.2, 132.0, 130.7 (d, J=3.0), 130.4 (d, J=3.2), 129.1, 128.6, 128.1, 126.8, 126.1, 125.7, 123.6, 100.2 (d, J=8.1), 52.6, 36.5 (d, J=26.2). ^19F NMR (471 MHz, CDCl3, 25° C.): δ −89.5. FTIR (thin film) cm^−1: 2922 (m), 2855 (w), 1662 (m), 1569 (w), 1408 (m), 1140 (s), 779 (s). HRMS (ESI) (m/z): calc'd for C15H15FNO [M+H]^+: 244.1132, found: 244.1129. TLC (5% CMA/chloroform), Rf: 0.30 (UV, KMnO4).
A 1-dram vial was charged with enamine N-oxide S1 (90.0 mg, 179 μmol, 1 equiv) and dissolved in chloroform-d (1.79 mL). […]

The nature of data set [4]: Enamine N-oxides with reducing agents. The class given is physicochemical. Particulars: probe 200 μM. The protocol:
A stock solution of 2-nitroaniline enamine N-oxide probe 32c (50 μL, 4 mM in 100 mM phosphate buffer, pH 7.4; 200 μM final concentration) was added to a phosphate buffered solution (850 μL, 100 mM phosphate, pH 7.4; 1 mL final volume) in a semi-micro quartz cell open to ambient atmosphere. A solution of glutathione (100 μL, 50 mM in phosphate buffer, pH 7.4; 5 mM final concentration) or cysteine (100 μL, 50 mM in phosphate buffer, pH 7.4; 5 mM final concentration) or tetrahydroxydiboron (100 μL, […] in methanol; 200 μM final concentration) were added to the solution. Reactions with glutathione or cysteine were incubated at 37° C. The reaction with tetrahydroxydiboron was carried out at room temperature. Wavelength scans (400-550 nm) were recorded at several time points (0, 1, and 2 hours).

Data set [5] relates to human liver microsomes. In words: In vitro microsomal reduction assay. The format is in vitro ADME. The conditions noted are these: hypoxic vs normoxic, 2-nitroaniline released, absorbance at λ=412 nm. On the procedure:
All reactions were prepared and carried out in a semi-micro spectrophotometer quartz cell fitted with a septum screw cap (Starna Cells). For anaerobic conditions, all solutions were degassed for 30 minutes by sparging with nitrogen. Cells were maintained under anaerobic conditions using nitrogen lines connected to a nitrogen gas manifold or using a nitrogen-filled balloon. In experiments requiring normoxic conditions, the quartz cells were left open to ambient atmosphere. Unless otherwise stated, reactions were prepared as follows. A solution of human liver microsomes (10 μL, 20 mg/mL in phosphate buffer, pH 7.4, Corning; 200 μg/mL final concentration) followed by a solution of NADPH (16.7 μL, 60 mM in 10 mM NaOH solution; 1 mM final concentration) was added to a phosphate buffered solution ([…], 100 mM phosphate buffer, pH 7.4; 1 mL final volume) at room temperature. After 1 hour, reactions were initiated by the addition of a stock solution of the 2-nitroaniline enamine N-oxide probes 32a-f (50 μL, 4 mM in phosphate buffer, pH 7.4; 200 μM final concentration). […]
Heat-inactivated microsomes were prepared for control experiments by heating a solution of human liver microsomes (20 mg/mL in phosphate buffer, pH 7.4, Corning) to 45° C. for 30 minutes. […]

Data set [6] in a line: Assay evaluating the stability of enamine N-oxides to metal cations. The class given is physicochemical. The conditions noted are these: 200 μM, 2 mM cations, 1 h, room temperature, 100 mM HEPES pH 7.4; Fe^2+ with 10 mM sodium dithionite. On the procedure: Enamine N-oxide 3a (50 μL, 4 mM in water; 200 μM final concentration) was added to a HEPES buffered solution (946 μL, 100 mM HEPES, pH 7.4; 1 mL final volume) in an HPLC vial. A solution of metal cation (4 μL, 500 mM in water, 2 mM final concentration) was then added and the solution was incubated at room temperature. After 1 hour, solutions were analyzed by HPLC (C18 column, 4.6×50 mm, 2.4 μm particle size, 1 mL/minute flow rate, eluent: gradient H2O+0.1% TFA (1 minute), gradient 0→100% MeCN/H2O+0.1% TFA (4 minutes), MeCN+0.1% TFA (1 minute)). p-Cresol was quantified by its absorbance of 280 nm.
The following cations were assayed using this procedure: sodium chloride, potassium chloride, calcium chloride, magnesium chloride, manganese (II) chloride, cobalt (II) sulfate, zinc (II) chloride, nickel (II) acetate, and iron (III) chloride.
For iron (II) sulfate, a solution of iron (II) sulfate (2 μL, 1 M in 1 N HCl; 2 mM final concentration) was added followed by a solution of sodium dithionite (10 μL, 1 M in 1 N NaOH; 10 mM final concentration).

Data set [7] can be described thus: Assay evaluating the importance of enamine N-oxide unsaturation. The format is physicochemical. Particulars: reductants B2(OH)4 or Fe^2+, 100 mM HEPES, pH 7.4, HPLC. The protocol:
Enamine N-oxide 6 or alkyl N-oxide S4 (50 μL, 4 mM in water; 200 μM final concentration) were added to a HEPES buffered solution (750 μL, 100 mM HEPES, pH 7.4; 1 mL final volume) in an HPLC vial. N-oxide reduction was initiated by adding a solution of tetrahydroxydiboron (200 μL, 200 nmol, 1 equiv, 1 mM in ethanol) and the resulting solution was incubated at room temperature. After 1 hour, solutions were analyzed by HPLC (C18 column, 4.6×50 mm, 2.4 μm particle size, 1 mL/minute flow rate, eluent: gradient H2O+0.1% TFA (1 minute), gradient 0→100% MeCN/H2O+0.1% TFA (4 minutes), MeCN+0.1% TFA (1 minute)). p-Cresol was quantified by its absorbance at 280 nm.

As for `CC[N+]([O-])(/C=C/COc1ccc(F)cc1)CC` [enamine N-oxide 5, (E)-N,N-diethyl-3-(4-fluorophenoxy)prop-1-en-1-amine oxide], the “Yield (%) 4 (p-fluorophenol formed)” value was 29% in data set [1] (CHCl3, 0.1 M) and below 1% in data set [1] (TFE, 0.1 M). In addition, the “Yield (%) 5 + 5′ (enamine N-oxide remaining)” value in data set [1] (CHCl3, 0.1 M) was 45%; in data set [1] (TFE, 0.1 M), 96%.

`CC[N+]([O-])(/C=C/C(Cc1ccccc1)Oc1ccc(C)cc1)CC` (stereo not shown) [enamine N-oxide S6, (E)-N,N-diethyl-4-phenyl-3-(p-tolyloxy)but-1-en-1-amine oxide]: the “reduction in the absence of diboron” value in data set [2] is listed as “not reduced in the absence of diboron”.

`C[N+]([O-])(/C=C/C(F)(F)Cc1cccc2ccccc12)CCCCC(=O)NCc1ccc2ccccc2c1` (stereo not shown) [enamine N-oxide S1, (E)-N-(3,3-difluoro-4-(naphthalen-1-yl)but-1-en-1-yl)-N-methyl-5-((naphthalen-2-ylmethyl)amino)-5-oxopentan-1-amine oxide]: the thermal decomposition entry in data set [3] is listed as “two new products were isolated in addition to the starting material”.

Turning to `CC[N+]([O-])(/C=C/COC(=O)Nc1ccccc1[N+](=O)[O-])CC` [probe 32c, (E)-N,N-diethyl-3-(((2-nitrophenyl)carbamoyl)oxy)prop-1-en-1-amine oxide], the reactivity toward cysteine entry in data set [4] (5 mM cysteine, phosphate buffer pH 7.4, 37° C., over 2 h) is “unreactive”. In addition, in data set [4] (5 mM glutathione (GSH), phosphate buffer pH 7.4, 37° C., over 2 h), the reactivity toward glutathione entry was “unreactive”. Further, the “time until probe is fully reduced by diboron” value in data set [4] (B2(OH)4 1 equiv 200 μM, room temperature) was at most 10 min. Further, in data set [5], the “enhancement in the initial rate of reduction under hypoxic conditions” value is recorded as 21 fold.

For `CC[N+]([O-])(/C=C/COc1ccc(C)cc1)CC` [enamine N-oxide 6], the “stability in the presence of different metal cations” value in data set [6] is “Only Fe^2+ was capable of reducing enamine N-oxides”. In data set [7], the “release of p-cresol upon reduction” value is “led to the release of p-cresol”.

`CC[N+]([O-])(CC)CCCOc1ccc(C)cc1` [alkyl N-oxide S4, N,N-diethyl-3-(p-tolyloxy)propan-1-amine oxide]: the “release of p-cresol upon reduction” value in data set [7] was “did not lead to the release of p-cresol”.

The values above are taken from patent US20240208898A1, “ENAMINE N-OXIDES: SYNTHESIS AND APPLICATION TO HYPOXIA-RESPONSIVE PRODRUGS AND IMAGING AGENTS” (DANA-FARBER CANCER INSTITUTE, INC., priority 2021, published 2024).
